Assays:
Assay type in all cases: functional, organism-based
Rattus norvegicus [1] = test: Carcinogenic activity on all sites after oral administration
Rattus norvegicus [2] = test: Carcinogenic activity on ear duct after oral administration
Rattus norvegicus [3] = test: Carcinogenic activity on breast after oral administration of the compound
Rattus norvegicus [4] = test: Carcinogenic activity on other sites after oral administration
Rattus norvegicus [5] = test: Carcinogenic activity on liver after oral administration
Rattus norvegicus [6] = test: Carcinogenic activity on mixed data after oral administration

Measured: Activity

CC(=O)Nc1cc(F)c2c(c1)Cc1ccccc1-2
Carcinogenic activity: Rattus norvegicus [1] | Rattus norvegicus [2] | Rattus norvegicus [3]

CN(C)c1ccc(/C=C/c2ccc(Cl)cc2)cc1
Carcinogenic activity: Rattus norvegicus [1] | Rattus norvegicus [2]

COc1ccc(/N=N/c2ccc(N)c(OC)c2)cc1
Carcinogenic activity: Rattus norvegicus [1] | Rattus norvegicus [4] | Rattus norvegicus [5]

CC(=O)Nc1cc2c(cc1I)-c1ccccc1C2
Carcinogenic activity: Rattus norvegicus [1] | Rattus norvegicus [2]

Nc1nc(N)nc(-c2ccc([N+](=O)[O-])o2)n1
Carcinogenic activity: Rattus norvegicus [1] | Rattus norvegicus [3]

Nc1ccc2ccc3ccccc3c2c1
Carcinogenic activity: Rattus norvegicus [1] | Rattus norvegicus [3]

COc1ccc2c(c1)Cc1cc(NC(C)=O)ccc1-2
Carcinogenic activity: Rattus norvegicus [1] | Rattus norvegicus [2] | Rattus norvegicus [3] | Rattus norvegicus [6] | Rattus norvegicus [5]

CC(=O)Nc1cc2c(cc1F)-c1ccccc1C2
Carcinogenic activity: Rattus norvegicus [1] | Rattus norvegicus [2] | Rattus norvegicus [3] | Rattus norvegicus [6] | Rattus norvegicus [5]

Nc1ccc(-c2cccc(F)c2)cc1
Carcinogenic activity: Rattus norvegicus [1] | Rattus norvegicus [3]

CC(=O)Nc1ccc2c(c1)Cc1c(F)cccc1-2
Carcinogenic activity: Rattus norvegicus [1] | Rattus norvegicus [2] | Rattus norvegicus [3] | Rattus norvegicus [6] | Rattus norvegicus [5]

CC(=O)Nc1ccc2c(c1)Cc1ccccc1S2
Carcinogenic activity: Rattus norvegicus [1] | Rattus norvegicus [4] | Rattus norvegicus [2] | Rattus norvegicus [3] | Rattus norvegicus [6]

Nc1ccc(/C=C/c2ccc3ccccc3n2)cc1
Carcinogenic activity: Rattus norvegicus [1] | Rattus norvegicus [2]

CN(C)c1ccc2cc3ccc(N(C)C)cc3nc2c1
Carcinogenic activity: Rattus norvegicus [1] | Rattus norvegicus [5]

ONc1ccc(/C=C/c2ccccc2)cc1
Carcinogenic activity: Rattus norvegicus [1] | Rattus norvegicus [4]

Nc1cc2ccccc2c2ccccc12
Carcinogenic activity: Rattus norvegicus [1] | Rattus norvegicus [3]

CN(C)c1ccc(/C=C/c2ccccc2F)cc1
Carcinogenic activity: Rattus norvegicus [1] | Rattus norvegicus [2] | Rattus norvegicus [3] | Rattus norvegicus [6] | Rattus norvegicus [5]

Nc1nc[nH]n1
Carcinogenic activity: Rattus norvegicus [1] | Rattus norvegicus [4] | Rattus norvegicus [5]

CCN(CC)c1ccc2c(c1)Cc1ccccc1-2
Carcinogenic activity: Rattus norvegicus [1] | Rattus norvegicus [4]

Nc1ccc2c(c1)Cc1cc(N)ccc1-2
Carcinogenic activity: Rattus norvegicus [1] | Rattus norvegicus [3]

CC(=O)Nc1nc(-c2ccc([N+](=O)[O-])o2)no1
Carcinogenic activity: Rattus norvegicus [1] | Rattus norvegicus [4] | Rattus norvegicus [5]

Nc1ccc(-c2ccc(N)c(Cl)c2)cc1Cl
Carcinogenic activity: Rattus norvegicus [1] | Rattus norvegicus [4] | Rattus norvegicus [2] | Rattus norvegicus [3] | Rattus norvegicus [6]

CC(=O)N(C(C)=O)c1ccc2c(c1)Cc1ccccc1-2
Carcinogenic activity: Rattus norvegicus [1] | Rattus norvegicus [4] | Rattus norvegicus [2] | Rattus norvegicus [3] | Rattus norvegicus [6] | Rattus norvegicus [5]

Nc1ccc(-c2ccccc2)cc1F
Carcinogenic activity: Rattus norvegicus [1] | Rattus norvegicus [3]

Nc1ccc(Cc2ccc(N)c(Cl)c2)cc1Cl
Carcinogenic activity: Rattus norvegicus [1] | Rattus norvegicus [4] | Rattus norvegicus [5]

Cc1cccc(/C=C/c2ccc(N(C)C)cc2)c1
Carcinogenic activity: Rattus norvegicus [1] | Rattus norvegicus [2]

CC(=O)Nc1ccc2c(c1)Cc1cc(F)ccc1-2
Carcinogenic activity: Rattus norvegicus [1] | Rattus norvegicus [2] | Rattus norvegicus [3] | Rattus norvegicus [6] | Rattus norvegicus [5]

CC(=O)Nc1ccc2c(c1)Cc1ccc(F)cc1-2
Carcinogenic activity: Rattus norvegicus [1] | Rattus norvegicus [4] | Rattus norvegicus [2] | Rattus norvegicus [3] | Rattus norvegicus [6] | Rattus norvegicus [5]

CC(=O)N(O)c1ccc2c(c1)Cc1cc(F)ccc1-2
Carcinogenic activity: Rattus norvegicus [1] | Rattus norvegicus [4] | Rattus norvegicus [2] | Rattus norvegicus [3] | Rattus norvegicus [6] | Rattus norvegicus [5]

Cc1cccc(/N=N/c2cc(C)ccc2N)c1
Carcinogenic activity: Rattus norvegicus [1] | Rattus norvegicus [5]

CC(=O)N(O)c1ccc(/C=C/c2ccccc2)cc1
Carcinogenic activity: Rattus norvegicus [1] | Rattus norvegicus [4] | Rattus norvegicus [2] | Rattus norvegicus [3] | Rattus norvegicus [6]

CC(=O)N(O)c1ccc(-c2ccccc2)cc1
Carcinogenic activity: Rattus norvegicus [1] | Rattus norvegicus [4] | Rattus norvegicus [2] | Rattus norvegicus [3] | Rattus norvegicus [6]

CN(C)Nc1nc(-c2ccc([N+](=O)[O-])o2)cs1
Carcinogenic activity: Rattus norvegicus [1] | Rattus norvegicus [4]

O=C(O)CCC(=O)Nc1ccc2c(c1)Cc1ccccc1-2
Carcinogenic activity: Rattus norvegicus [1] | Rattus norvegicus [5]

O=C(Nc1ccc2c(c1)Cc1ccccc1-2)C(F)(F)F
Carcinogenic activity: Rattus norvegicus [1] | Rattus norvegicus [2] | Rattus norvegicus [3] | Rattus norvegicus [6] | Rattus norvegicus [5]

CC(=O)Nc1ccc2c(c1)Cc1cccc(F)c1-2
Carcinogenic activity: Rattus norvegicus [1] | Rattus norvegicus [2] | Rattus norvegicus [3]

CC(=O)Nc1ccc2c(c1F)Cc1ccccc1-2
Carcinogenic activity: Rattus norvegicus [1] | Rattus norvegicus [2] | Rattus norvegicus [3]

Cc1cc2ccccc2cc1N
Carcinogenic activity: Rattus norvegicus [1] | Rattus norvegicus [4] | Rattus norvegicus [3]

CC(=O)Nc1ccc2c(c1)Cc1cccc(NC(C)=O)c1-2
Carcinogenic activity: Rattus norvegicus [1] | Rattus norvegicus [3]

Cn1cnc([N+](=O)[O-])c1Sc1ncnc2[nH]cnc12
Carcinogenic activity: Rattus norvegicus [1] | Rattus norvegicus [4] | Rattus norvegicus [2]

CN(C)c1ccc(/C=C/c2ccccc2)cc1
Carcinogenic activity: Rattus norvegicus [1] | Rattus norvegicus [2]

Nc1cc2ccccc2cc1[N+](=O)[O-]
Carcinogenic activity: Rattus norvegicus [1] | Rattus norvegicus [4]

Nc1ccc2c(c1)CCc1ccccc1-2
Carcinogenic activity: Rattus norvegicus [1] | Rattus norvegicus [4] | Rattus norvegicus [2] | Rattus norvegicus [6]

O=CNc1ccc2c(c1)Cc1ccccc1-2
Carcinogenic activity: Rattus norvegicus [1] | Rattus norvegicus [2] | Rattus norvegicus [3]

ONc1cccc2ccccc12
Carcinogenic activity: Rattus norvegicus [1] | Rattus norvegicus [4]

NCC(=O)Nc1ccc2c(c1)-c1ccccc1C2
Carcinogenic activity: Rattus norvegicus [1] | Rattus norvegicus [5]

Cc1cc(-c2ccccc2)ccc1N
Carcinogenic activity: Rattus norvegicus [1] | Rattus norvegicus [4] | Rattus norvegicus [2]

Cc1cc(Cc2ccc(N)c(C)c2)ccc1N
Carcinogenic activity: Rattus norvegicus [1] | Rattus norvegicus [4] | Rattus norvegicus [3] | Rattus norvegicus [6] | Rattus norvegicus [5]

CC(=O)Nc1ccc2c(c1)oc1ccccc12
Carcinogenic activity: Rattus norvegicus [1] | Rattus norvegicus [2] | Rattus norvegicus [3]

CC(=O)Nc1ccc(/C=C/c2ccccc2)cc1
Carcinogenic activity: Rattus norvegicus [1] | Rattus norvegicus [2] | Rattus norvegicus [3]

CN(C)c1ccc(/C=C/c2ccc(F)cc2)cc1
Carcinogenic activity: Rattus norvegicus [1] | Rattus norvegicus [2]

CC(=O)Nc1ccc2c(c1)Sc1ccccc1C2
Carcinogenic activity: Rattus norvegicus [1] | Rattus norvegicus [4] | Rattus norvegicus [2] | Rattus norvegicus [3] | Rattus norvegicus [6]

Nc1ccc(/N=N/c2ccccc2)cc1
Carcinogenic activity: Rattus norvegicus [1] | Rattus norvegicus [4]

O=CNc1nc(-c2ccc([N+](=O)[O-])o2)cs1
Carcinogenic activity: Rattus norvegicus [1] | Rattus norvegicus [4] | Rattus norvegicus [3]

COc1cc(/N=N/c2ccccc2)ccc1N
Carcinogenic activity: Rattus norvegicus [1] | Rattus norvegicus [4] | Rattus norvegicus [2] | Rattus norvegicus [6] | Rattus norvegicus [5]
